Tested on: Ramos B-Cell Line Stimulated with IL-4 (JAK-1 and JAK-3 / Stat-6, CD23)
Assay: Assay for Ramos B-Cell Line Stimulated with IL-4 (CD23 upregulation, FACS)
Format: cell-based
Details: Homo sapiens, Ramos, human Ramos B cells, compound 1 hour, IL-4 50 units/mL for 20-24 hours, anti-CD23-PE FACS; read-out: Example 2 (IC50)
Source text: One means of assaying for such inhibition is detection of the effect of the 2,4-pyrimidinediamine compounds on the upregulation of downstream gene products. In the Ramos/IL4 assay, B-cells are stimulated with the cytokine Interleukin-4 (IL-4) leading to the activation of the JAK/Stat pathway through phosphorylation of the JAK family kinases, JAK1 and JAK3, which in turn phosphorylate and activate the transcription factor Stat-6. […] To study the effect of inhibitors (e.g., the 2,4-substituted pyrimindinediamine compounds described herein) on the JAK1 and JAK3 kinases, human Ramos B cells are stimulated with human IL-4. 20 to 24 hours post stimulation, cells are stained for upregulation of CD23 and analyzed using flow cytometry (FACS).
B-cells stimulated with cytokine Interleukin-4 (IL-4) activate the JAK/Stat pathway through phosphorylation of the JAK family kinases, JAK-1 and JAK-3, which in turn phosphorylate and activate the transcription factor Stat-6. […] To study the effect of inhibitors on the JAK family kinases, human Ramos B cells were stimulated with human IL-4.
Cells were maintained at a density of 3.5×10^5. The day before the experiment, Ramos B-cells were diluted to 3.5×10^5 cells/mL to ensure that they were in a logarithmic growth phase.
Cells were spun down and suspended in RPMI with 5% serum. 5×10^4 cells were used per point in a 96-well tissue culture plate. Cells were pre-incubated with compound or DMSO (Sigma-Aldrich, St. Louis, Mo., Cat No. D2650) vehicle control for 1 hour in a 37° C. incubator. Cells were then stimulated with IL-4 (Peprotech Inc., Rocky Hill, N.J., Cat No. 200-04) for a final concentration of 50 units/mL for 20-24 hours. […] Detection was performed using a BD LSR I System Flow Cytometer, purchased from Becton Dickinson Biosciences of San Jose, Calif.

SMILES | IC50 [nM]
CN1CCN(C(=O)c2cccc(Nc3ncc(F)c(Nc4ccc(OCC(N)=O)cc4)n3)c2)CC1 [Compound I-37, N4-(4-Aminocarbonylmethoxyphenyl)-5-fluoro-N2-[3-((4-methylpiperazin-1-yl)carbonyl)phenyl]-2,4-pyrimidinediamine] | 2240
C#CCOc1ccc(Nc2nc(Nc3ccc(C(N)=O)cc3)ncc2F)cc1 [Compound I-8, N2-(4-Aminocarbonylphenyl)-5-fluoro-N4-[4-(2-propynyloxy)phenyl]-2,4-pyrimidinediamine] | 118
Cc1noc(CCc2ccc(Nc3nc(Nc4ccc(CC#N)cc4)ncc3F)cc2)n1 [Compound I-120, N2-(4-Cyanomethylphenyl)-5-fluoro-N4-[4-(2-(3-methyl-1,2,4-oxadiazol-5-yl)ethyl)phenyl]-2,4-pyrimidinediamine] | 1950
C#CCOc1ccc(Nc2nc(Nc3ccc4c(c3)C(=O)NCC4)ncc2F)cc1 [Compound V-2, 5-Fluoro-N2-(1-oxo-1,2,3,4-tetrahydroisoquinolin-7-yl)-N4-[4-(2-propynyloxy)phenyl]-2,4-pyrimidinediamine] | 355
Cc1nc(COc2ccc(Nc3nc(Nc4ccc(CC#N)cc4)ncc3F)cc2)no1 [Compound I-77, N2-(4-Cyanomethylphenyl)-5-fluoro-N4-[4-((5-methyl-1,2,4-oxadiazol-3-yl)methoxy)phenyl]-2,4-pyrimidinediamine] | 247
N#CCOc1ccc(Nc2nc(Nc3ccc(CC#N)cc3)ncc2F)cc1F [Compound I-103, N4-(4-Cyanomethoxy-3-fluorophenyl)-N2-(4-cyanomethylphenyl)-5-fluoro-2,4-pyrimidinediamine] | 82.7
Cc1nc(COc2ccc(Nc3nc(Nc4ccc(C(N)=O)cc4)ncc3F)cc2)no1 [Compound I-56, N2-(4-Aminocarbonylphenyl)-5-fluoro-N4-[4-((5-methyl-1,2,4-oxadiazol-3-yl)methoxy)phenyl]-2,4-pyrimidinediamine] | 91.4
CC(C)(C#N)Oc1ccc(Nc2nc(Nc3cccc(C(N)=O)c3)ncc2F)cc1 [Compound I-85, N2-(3-Aminocarbonylphenyl)-N4-[4-(1-cyano-1-methylethoxy)phenyl]-5-fluoro-2,4-pyrimidinediamine] | 760
N#CCOc1ccc(Nc2nc(Nc3ccc(C(N)=O)cc3)ncc2F)cc1F [Compound I-101, N2-(4-Aminocarbonylphenyl)-N4-(4-cyanomethoxy-3-fluorophenyl)-5-fluoro-2,4-pyrimidinediamine] | 33.7
N#Cc1ccc(Nc2ncc(F)c(Nc3cccc(OCC(N)=O)c3)n2)cc1 [Compound I-34, N4-(3-Aminocarbonylmethoxyphenyl)-N2-(4-cyanophenyl)-5-fluoro-2,4-pyrimidinediamine] | 1250
C#CCOc1ccc(Nc2nc(Nc3cccc(C(N)=O)c3)ncc2F)cc1 [Compound I-6, N2-(3-Aminocarbonylphenyl)-5-fluoro-N4-[4-(2-propynyloxy)phenyl]-2,4-pyrimidinediamine] | 2770
CN1CCN(c2ccc(Nc3ncc(F)c(Nc4ccc(OCC#N)cc4)n3)cc2C(N)=O)CC1 [Compound I-42, N2-[3-Aminocarbonyl-4-(4-methylpiperazin-1-yl)phenyl]-N4-(4-cyanomethoxyphenyl)-5-fluoro-2,4-pyrimidinediamine] | 14
CC(C#N)Oc1ccc(Nc2nc(Nc3ccc(CC#N)cc3)ncc2F)cc1 (stereo not shown) [Compound I-78, N4-[4-(1-Cyanoethoxy)phenyl]-N2-(4-cyanomethylphenyl)-5-fluoro-2,4-pyrimidinediamine] | 117
CN1CCN(C(=O)c2ccc(Nc3ncc(F)c(Nc4cccc(OCC(N)=O)c4)n3)cc2)CC1 [Compound I-48, N4-(3-Aminocarbonylmethoxyphenyl)-5-fluoro-N2-[4-((4-methylpiperazin-1-yl)carbonyl)phenyl]-2,4-pyrimidinediamine] | 913

Second part, the compound after the results:

IC50 [nM] | SMILES
127 | Cc1cc(Nc2nc(Nc3ccc(C(N)=O)cc3)ncc2F)ccc1OC(C)C#N (stereo not shown) [Compound I-92, N2-(4-Aminocarbonylphenyl)-N4-[4-(1-cyanoethoxy)-3-methylphenyl]-5-fluoro-2,4-pyrimidinediamine]
31600 | CCc1cc(Nc2ncc(F)c(Nc3cccc(OCC#N)c3)n2)cc(C#N)c1Cl [Compound I-105, N2-(4-Chloro-3-cyano-5-ethylphenyl)-N4-(3-cyanomethoxyphenyl)-5-fluoro-2,4-pyrimidinediamine]
258 | Cc1noc(COc2ccc(Nc3nc(Nc4ccc(CC#N)cc4)ncc3F)c(C)c2)n1 [Compound I-115, N2-(4-Cyanomethylphenyl)-5-fluoro-N4-[2-methyl-4-((3-methyl-1,2,4-oxadiazol-5-yl)methoxy)phenyl]-2,4-pyrimidinediamine]
533 | CN1CCN(c2ccc(Nc3ncc(F)c(Nc4ccc(OCC(N)=O)cc4)n3)cc2C(N)=O)CC1 [Compound I-38, N2-[3-Aminocarbonyl-4-(4-methylpiperazin-1-yl)phenyl]-N4-(4-aminocarbonylmethoxyphenyl)-5-fluoro-2,4-pyrimidinediamine]
223 | C#CCOc1ccc(Nc2nc(Nc3ccc(C(N)=S)cc3)ncc2F)cc1 [Compound I-7, N2-(4-Aminocarbonothioylphenyl)-5-fluoro-N4-[4-(2-propynyloxy)phenyl]-2,4-pyrimidinediamine]
7020 | CCc1cc(Nc2ncc(F)c(Nc3ccc(CC#N)cc3)n2)cc(C#N)c1Cl [Compound I-106, N2-(4-Chloro-3-cyano-5-ethylphenyl)-N4-(4-cyanomethylphenyl)-5-fluoro-2,4-pyrimidinediamine]
167 | Cc1cc(Nc2nc(Nc3ccc(CC#N)cc3)ncc2F)cc(C)c1OCC#N [Compound I-89, N4-(4-Cyanomethoxy-3,5-dimethylphenyl)-N2-(4-cyanomethylphenyl)-5-fluoro-2,4-pyrimidinediamine]
1830 | CC(C)OC(=O)COc1ccc(Nc2nc(Nc3ccc(C(=O)N4CCN(C)CC4)cc3)ncc2F)cc1 [Compound I-26, 5-Fluoro-N4-[4-((1-methylethoxy)carbonylmethoxy)phenyl]-N2-[4-((4-methylpiperazin-1-yl)carbonyl)phenyl]-2,4-pyrimidinediamine]
174 | CCc1cc(Nc2ncc(F)c(Nc3ccc4c(c3)NC(=O)CS4)n2)cc(C#N)c1Cl [II-23, N2-(4-Chloro-3-cyano-5-ethylphenyl)-5-fluoro-N4-(3-oxo-2H,4H-benzo[1,4]thiazin-6-yl)-2,4-pyrimidinediamine]
752 | NC(=O)c1ccc(Nc2ncc(F)c(Nc3cccc(-c4ncco4)c3)n2)cc1 [Compound I-13, N2-(4-Aminocarbonylphenyl)-5-fluoro-N4-[3-(oxazol-2-yl)phenyl]-2,4-pyrimidinediamine]
52.9 | CC(C#N)Oc1ccc(Nc2nc(Nc3ccc(C(N)=O)cc3)ncc2F)cc1 (stereo not shown) [Compound I-81, N2-(4-Aminocarbonylphenyl)-N4-[4-(1-cyanoethoxy)phenyl]-5-fluoro-2,4-pyrimidinediamine]
2630 | Cc1cnc(Nc2cnc3c(c2)OC(C)(C)C(=O)N3)nc1Nc1cnc2c(c1)OC(C)(C)C(=O)N2 [VII-1, N4,N2-Bis(2,2-Dimethyl-3-oxo[4H]-5-pyrido[1,4]oxazin-7-yl)-5-methyl-2,4-pyrimidinediamine]

Same assay, conditions: human Ramos B cells, compound 1 hour, IL-4 50 units/mL for 20-24 hours, anti-CD23-PE FACS; read-out: Example 2 (IC50)

SMILES | IC50 [nM]
Cc1cc(COc2ccc(Nc3nc(Nc4ccc(CC#N)cc4)ncc3F)cc2)no1 [Compound I-130, N2-(4-Cyanomethylphenyl)-5-fluoro-N4-[4-((5-methylisoxazol-3-yl)methyleneoxy)phenyl]-2,4-pyrimidinediamine] | 344
Cc1noc(COc2ccc(N(C)c3nc(Nc4cccc(C#N)c4)ncc3F)cc2)n1 [Compound I-17, N2-(3-Cyanophenyl)-5-fluoro-N4-methyl-N4-[4-((3-methyl-1,2,4-oxadiazol-5-yl)methyleneoxy)phenyl]-2,4-pyrimidinediamine] | 1780

More lines, now with the values ahead:

IC50 [nM] | SMILES
130 | CNC(=O)COc1cc(Nc2ncc(F)c(Nc3ccc4c(n3)NC(=O)C(C)(C)O4)n2)cc(OC)c1OC [II-21, N2-[4,5-Dimethoxy-3-(N-methylaminocarbonylmethyleneoxy)phenyl]-N4-(2,2-dimethyl-3-oxo-4H-5-pyrido[1,4]oxazin-6-yl)-5-fluoro-2,4-pyrimidinediamine]
189 | Cc1cnc(Nc2cccc(C(N)=O)c2)nc1Nc1ccc2c(c1)NC(=O)CS2 [II-44, N2-(3-Aminocarbonylphenyl)-N4-(3,4-dihydro-2H-3-oxo-4H-benz[1,4]thiazin-6-yl)-5-methyl-2,4-pyrimidinediamine]
938 | CNC(=O)COc1cccc(Nc2ncc(F)c(Nc3ccc4c(c3)N(Cc3ccc(OC)cc3)C(=O)C(C)S4)n2)c1 (racemic) [II-13, Racemic-5-fluoro-N2-[3-(N-methylaminocarbonylmethyleneoxy)phenyl]-N4-[2-methyl-3-oxo-4-(4-methoxybenzyl)-2H-benzo[1,4]thiazin-6-yl]-2,4-pyrimidinediamine]

Source: US7834024B2, “Compositions and methods for inhibition of the JAK pathway” (Rigel Pharmaceuticals, Inc., priority 2007, dated 2010)
